Test results: ChEMBL document CHEMBL4689842, “EUbOPEN Chemogenomics Library wave 1” (2021)

Experiments:
Fibroblast = test: Incucyte cell viability with human fibroblast; type: toxicity, cell-based; settings: 10 µM, compound concentration 10 uM
U2OS = test: Incucyte cell viability with U2OS; type: toxicity, cell-based; settings: human, 10 µM, compound concentration 10 uM
[1] = 0 h, replicate number 2, timepoint 0 hours
[2] = 6 h, replicate number 1, timepoint 6 hours
[3] = 12 h, replicate number 1, timepoint 12 hours
[4] = 18 h, replicate number 1, timepoint 18 hours
[5] = 24 h, replicate number 1, timepoint 24 hours
[6] = 6 h, replicate number 2, timepoint 6 hours
[7] = 18 h, replicate number 2, timepoint 18 hours
[8] = 0 h, replicate number 1, timepoint 0 hours
[9] = 24 h, replicate number 2, timepoint 24 hours
[10] = 12 h, replicate number 2, timepoint 12 hours
Note: filed as whole numbers so only -1 and 0 and 1 occur.

Row | SMILES | Growth Rate (Fibroblast; [1]) | Growth Rate (Fibroblast; [2]) | Growth Rate (Fibroblast; [3]) | Growth Rate (Fibroblast; [4]) | Growth Rate (Fibroblast; [5]) | Growth Rate (U2OS; [1]) | Growth Rate (U2OS; [6]) | Growth Rate (U2OS; [3]) | Growth Rate (U2OS; [4]) | Growth Rate (U2OS; [7]) | Growth Rate (U2OS; [5]) | Growth Rate (Fibroblast; [8]) | Growth Rate (U2OS; [2]) | Growth Rate (U2OS; [8]) | Growth Rate (Fibroblast; [7]) | Growth Rate (Fibroblast; [9]) | Growth Rate (U2OS; [10]) | Growth Rate (U2OS; [9]) | Growth Rate (Fibroblast; [6]) | Growth Rate (Fibroblast; [10])
1 | c1cn2cc(-c3ccc4cn[nH]c4c3)nc(Nc3ccc(N4CCOCC4)cc3)c2n1 [ENTOSPLETINIB] | 0 | 0 | 0 | 0 | 0 | 1 | 1 | 1 | 1 | 0 | 0 | – | – | – | – | – | – | – | – | –
2 | C=CC(=O)Nc1cc2c(Nc3ccc(F)c(Cl)c3)ncnc2cc1OCCCN1CCOCC1.Cl.Cl [CANERTINIB DIHYDROCHLORIDE] | – | 0 | 0 | 0 | 0 | – | – | 0 | 0 | – | 0 | 1 | 0 | – | – | – | – | – | – | –
3 | COc1ncc(-c2ccc3nccc(-c4ccnnc4)c3c2)cc1NS(=O)(=O)c1ccc(F)cc1F [OMIPALISIB] | 0 | 0 | 0 | 0 | 0 | – | – | 1 | 0 | – | 0 | – | 1 | 1 | – | – | – | – | – | –
4 | C=CC(=O)Nc1ccc2ncnc(Nc3ccc(OCc4cccc(F)c4)c(Cl)c3)c2c1.Cc1ccc(S(=O)(=O)O)cc1 | – | 0 | 0 | 0 | 0 | 1 | 0 | 1 | 0 | – | 0 | 0 | – | – | – | – | – | – | – | –
5 | Cc1c(-c2ccc(O)cc2)n(Cc2ccc(OCCN3CCCCCC3)cc2)c2ccc(O)cc12 [BAZEDOXIFENE] | – | 0 | 0 | 0 | 0 | 0 | – | 1 | 0 | 1 | 0 | 0 | – | – | – | – | – | – | – | –
6 | CN(C)c1ncnc(-c2ccc3nc(Nc4cc(CN5CCN(C(=O)CC(F)(F)F)CC5)ccn4)[nH]c3c2)c1Cl [BAY-440] | – | 1 | 1 | 1 | 1 | 0 | 1 | 0 | 0 | 1 | 0 | 0 | 0 | – | 0 | 0 | 1 | 1 | – | –
7 | Cc1nc(-c2ccc(-c3ccc(C(=O)N4CCc5cc6c(cc54)C4(CCN(C)CC4)CO6)cc3)c(C)c2)no1 [SB-224289] | – | – | 0 | 0 | 0 | 0 | 1 | – | 1 | – | 1 | 0 | – | – | – | – | 1 | 0 | 0 | –
8 | O=C(NCCN1CCOCC1)c1ccc2c(c1)C(=O)c1ccc(Nc3ccc(F)c(NC(=O)c4ccccc4)c3)cc1CC2 [FS-694] | – | 1 | 0 | 0 | 0 | 0 | – | 1 | 0 | – | 0 | 0 | – | – | – | – | – | 1 | – | –
9 | O=C1NCN(c2ccccc2)C12CCN(CCCOc1ccc(F)cc1)CC2 [SPIRAMIDE] | – | 0 | 0 | 0 | 0 | – | 1 | 0 | 0 | – | 0 | 1 | – | 0 | – | – | – | – | – | –
10 | C[C@@]1(C(=O)Nc2ccc(F)nc2)CCCN1c1nc(Nc2cc(C3CC3)n[nH]2)c2cccn2n1 [BMS-754807] | – | 0 | 0 | 0 | 0 | – | – | 0 | 0 | – | 0 | – | 0 | 0 | – | – | – | – | – | –
11 | CN1CCN(CCOc2cc(OC3CCOCC3)c3c(Nc4c(Cl)ccc5c4OCO5)ncnc3c2)CC1 [SARACATINIB] | – | – | – | 1 | 1 | – | – | 0 | 0 | 1 | 0 | 0 | 0 | – | – | – | 1 | 1 | – | –
12 | Cc1sc2c(c1C)C(c1ccc(Cl)cc1)=N[C@@H](CC(=O)OC(C)(C)C)c1nnc(C)n1-2 | 0 | 0 | 0 | 0 | 0 | – | 1 | 1 | 0 | 1 | 0 | – | 0 | 0 | – | – | – | 1 | 1 | –
13 | CC[C@H](C)C(=O)O[C@H]1C[C@@H](C)C=C2C=C[C@H](C)[C@H](CC[C@@H]3C[C@@H](O)CC(=O)O3)[C@H]21 [LOVASTATIN] | – | 1 | 1 | 1 | 1 | – | – | 0 | 0 | – | 0 | 0 | 0 | – | – | – | – | – | – | –
14 | Cc1nc(-c2cn3c(n2)-c2ccc(-c4cnn(C(C)(C)C(N)=O)c4)cc2OCC3)n(C(C)C)n1 [TASELISIB] | 1 | 0 | 0 | 0 | 0 | – | – | 1 | 0 | 1 | 0 | 0 | 0 | 0 | – | – | – | – | – | –
15 | COc1cccc([C@@H](C)NCCCc2ccccc2Cl)c1.Cl [TECALCET HYDROCHLORIDE] | – | – | 1 | 1 | 1 | – | 0 | 1 | 1 | – | 1 | 0 | – | 0 | 0 | 0 | – | 0 | 0 | 0
16 | Cc1nc(Nc2n[nH]c3c2CN(C(=O)N[C@H](CN(C)C)c2ccccc2)C3(C)C)c2sccc2n1 [PF-03758309] | 0 | 0 | 0 | 0 | 0 | – | – | 0 | 0 | – | 0 | – | 0 | 1 | – | – | – | – | – | –
17 | CN(C)C(=O)/C(C#N)=C/c1ccc(-c2nc3cnc4[nH]ccc4c3n2C2CCCCC2)o1 | 0 | 1 | 0 | 0 | 0 | – | 1 | 0 | 0 | 1 | 0 | – | 0 | 0 | 1 | – | 1 | 1 | – | –
